Measurements reported in ChEMBL document CHEMBL1121567, “Synthesis of some 5-phenylhexahydroazepino[4,5-b]indoles as potential neuroleptic agents” (1980).

Legend:
[1] = tested on: Mus musculus; test: Effective dose to reverse tetrabenazine ptosis in mouse when administered po; format: functional
[2] = tested on: Rattus norvegicus; test: Effective dose to block muricidal behavior in rat when administered ip; format: functional

Row | SMILES | ED50 [1] | ED50 [2]
1 | CN1CCc2c(n(C)c3ccccc23)C(c2ccccc2)C1 (centres undefined) | > 30 mg/kg | > 20 mg/kg
2 | CN1CCc2c([nH]c3ccccc23)C(c2ccccc2)C1 (centres undefined) | 1 mg/kg | > 10 mg/kg
3 | c1ccc(C2CNCCc3c2[nH]c2ccccc32)cc1 (centres undefined) | > 30 mg/kg | 2.1 mg/kg
4 | Cn1c2c(c3ccccc31)CCNCC2c1ccccc1 (centres undefined) | > 30 mg/kg | > 10 mg/kg
5 | COc1ccc2[nH]c3c(c2c1)CCN(C)CC3c1ccccc1 (centres undefined) | 1.9 mg/kg | > 10 mg/kg
6 | COc1ccc2[nH]c3c(c2c1)CCNCC3c1ccccc1 (centres undefined) | > 30 mg/kg | 12.2 mg/kg
7 | CN(C)CCCN1c2ccccc2CCc2ccccc21 [IMIPRAMINE] | 2 mg/kg | 20.2 mg/kg
